# Data: article PMC12500856 (Nature Communications, 2025)
# T1: SgGouE (Streptomyces graminearus, UniProt K4HPM3)
# T1 sequence (K4HPM3 1-246): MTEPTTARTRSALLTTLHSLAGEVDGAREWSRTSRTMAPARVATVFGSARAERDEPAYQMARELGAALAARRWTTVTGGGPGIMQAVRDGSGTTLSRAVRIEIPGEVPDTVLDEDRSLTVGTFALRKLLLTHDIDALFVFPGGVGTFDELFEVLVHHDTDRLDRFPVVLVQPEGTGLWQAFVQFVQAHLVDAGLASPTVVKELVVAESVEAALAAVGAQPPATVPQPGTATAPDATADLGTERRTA
# T2: CodA (Escherichia coli, UniProt P25524)
# T2 sequence (P25524 2-427): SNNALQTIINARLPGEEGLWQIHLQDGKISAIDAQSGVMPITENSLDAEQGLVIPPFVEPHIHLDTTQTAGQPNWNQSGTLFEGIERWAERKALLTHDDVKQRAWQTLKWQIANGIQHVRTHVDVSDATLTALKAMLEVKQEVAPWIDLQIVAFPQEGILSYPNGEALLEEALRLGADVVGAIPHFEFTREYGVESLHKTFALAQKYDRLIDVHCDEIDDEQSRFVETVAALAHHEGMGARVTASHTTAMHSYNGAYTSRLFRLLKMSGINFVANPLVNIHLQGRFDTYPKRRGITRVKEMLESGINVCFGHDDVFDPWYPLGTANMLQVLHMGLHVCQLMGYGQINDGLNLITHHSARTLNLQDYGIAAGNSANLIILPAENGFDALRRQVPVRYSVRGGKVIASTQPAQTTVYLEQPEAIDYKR
# B1: NmYgdH (Neisseria meningitidis MC58) (protein)
# chain: MENTNRVPEQARYDAERRQADEALAGVFPAVSIFGSARTPQNHADYAFACRLARRLSDSGIAVISGGGPGIMEAANKGAFAGKSVSVGLNIVLPHEQKPNPYQDIALRFSRFAERKAVFFRYSQAYVVMPGGFGTLDELFEILTLVQTGKVPPRPIVLVGKAFWSGLAEWINAQLLARGLISEGAVSLFAISDDEDEIVAYLSEHGLQTA
# Tests used:
# [1] = biological target: T1, SgGouE; experiment: HPLC turnover assay; assay type: biochemical; details: 50 mM Tris-HCl pH 8.0, 1 mM CMP, 1 mM MgCl2, 30 °C (cascade)
# [2] = biological target: T1, SgGouE; experiment: HPLC turnover assay; assay type: biochemical
# [3] = biological target: T2, CodA; experiment: HPLC, deamination in cascade; assay type: biochemical; details: 50 mM Tris-HCl pH 8.0, 1 mM MgCl2, 30 °C
# [4] = biological target: HDHD1 (Homo sapiens, UniProt Q08623); experiment: in vitro competition assay, dephosphorylation; assay type: biochemical; details: competition with UMP
# [5] = biological target: PhoA (Escherichia coli, UniProt P00634); experiment: HPLC, dephosphorylation in cascade; assay type: biochemical; details: 50 mM Tris-HCl pH 8.0, 1 mM MgCl2, 30 °C
# [6] = substrate: O=c1ccn([C@@H]2O[C@H](COP(=O)(O)O)[C@@H](O)[C@H]2O)c(=O)[nH]1; experiment: kinetic analysis of UMP hydrolysis; assay type: biochemical, Neisseria meningitidis
# Sequence of PhoA (P00634 22-471): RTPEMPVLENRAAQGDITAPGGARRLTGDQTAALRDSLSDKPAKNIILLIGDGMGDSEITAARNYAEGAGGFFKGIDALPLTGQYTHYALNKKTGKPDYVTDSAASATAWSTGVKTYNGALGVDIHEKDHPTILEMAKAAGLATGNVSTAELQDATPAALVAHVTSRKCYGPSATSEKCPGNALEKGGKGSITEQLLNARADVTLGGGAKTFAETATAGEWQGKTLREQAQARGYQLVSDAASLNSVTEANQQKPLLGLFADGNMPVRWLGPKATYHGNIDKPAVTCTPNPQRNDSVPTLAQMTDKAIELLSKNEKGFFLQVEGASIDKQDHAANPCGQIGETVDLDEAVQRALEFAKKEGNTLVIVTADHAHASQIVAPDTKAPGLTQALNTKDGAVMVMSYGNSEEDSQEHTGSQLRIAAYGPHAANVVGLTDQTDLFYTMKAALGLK
# Sequence of HDHD1 (Q08623 whole entry): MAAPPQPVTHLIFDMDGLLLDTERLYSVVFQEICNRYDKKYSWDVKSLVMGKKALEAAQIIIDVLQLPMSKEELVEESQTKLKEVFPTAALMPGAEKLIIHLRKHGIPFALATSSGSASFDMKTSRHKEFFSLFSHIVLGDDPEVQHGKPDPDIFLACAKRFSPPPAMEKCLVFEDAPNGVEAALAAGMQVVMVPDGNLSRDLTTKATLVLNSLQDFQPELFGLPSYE
molecule,measurement,setting,value
Nc1ccn([C@@H]2O[C@H](COP(=O)(O)O)[C@@H](O)[C@H]2O)c(=O)n1 [CMP],HPLC turnover assay,[1],we found that SgGouE indicates the most superior performance
O=c1ccn([C@@H]2O[C@H](COP(=O)(O)O)[C@@H](O)[C@H]2O)c(=O)[nH]1 [UMP],relative efficiency,[2],50%
Nc1cc[nH]c(=O)n1 [cytosine],"HPLC, deamination in cascade",[3],cytosine can be easily deaminated by CodA (deaminase)
O=c1[nH]cc([C@@H]2O[C@H](COP(=O)(O)O)[C@@H](O)[C@H]2O)c(=O)[nH]1 [ΨMP],"in vitro competition assay, dephosphorylation",[4],HDHD1 has prominent specificity and activity against the latter substrate
same,"HPLC, dephosphorylation in cascade",[5],the phosphatase PhoA was utilized for the dephosphorylation of ΨMP for related assays
B1,Km,[6],11.78 ± 0.81 mM
same,kcat,[6],81.90 ± 2.60 s⁻¹
